Laboratory results from patent US9386766B2, “Insect attractant compositions” (University of Greenwich, priority 2009, dated 2016).

Legend:
[1] = tested on: H. armigera; assay: Field trials in India and Bangladesh: floral bait trap catches, Trials 1-5 (Example 2); type: in vivo, Helicoverpa armigera; conditions: Trial 1; for Total catches H. armigera: Cotton
Source text: (§1) In addition, five pheromone baited traps (baited with the pheromone of the key Helicoverpa and related spp.) were used as standards for each target species. Lures were changed every two to three weeks.
(§2) The choice of pheromone trap depended on local availability. In India, the preferred trap was the standard Pheromone Chemicals Ltd. plastic funnel trap, while in Bangladesh a plastic water trap was used. Pheromone lures for the trials were provided by NRI. In India and Bangladesh, H. armigera, Maruca vitrata, Earias vittella and Pectinophora gossypiella lures were provided.
(§3) The floral baits were provided in sealed lay-flat polyethylene sachets. The sachets were hung inside the traps in the same way as the pheromone lures. Traps were supported at crop height and the height was adjusted periodically to account for crop growth. Yellow-coloured traps were avoided in order to deter pollinators. Preferably, traps should be colourless or green-coloured. Trap covers were opaque. Where necessary, a killing agent was incorporated into each trap—to ensure insects were dead before opening the trap to count catches.
(§4) Trial 1 was designed to investigate the effect of altering the relative amount of the two main components, phenylacetaldhyde and salicylaldehyde on catch. The trial was laid out in cotton fields at four locations: Narakoduru and Jammikunta in Andhra Pradesh, India, and Shreepur and Jessore in Bangladesh.
In Trial 2, the standard 5-component blend used in Example 1 (96/12) was compared to: Magnet® (96/10), Li et al. (2005) (96/11) and a binary blend of phenylacetaldehyde and salicylaldehyde (96/13).
In Trial 3, a third component was added to a roughly 70:30 blend of phenylacetaldehyde:salicylaldehyde, to assess whether the additional compound made the binary blend more attractive to nocturnal Lepidoptera. The compositions of the blends tested are shown in Table 11 and the results in Table 12.
In Trial 4, two compounds were added to a 70:30 blend of phenylacetaldehyde:salicylaldehyde, to assess whether the additional compounds made the binary blend more attractive to nocturnal Lepidoptera. The compositions of the blends tested are shown in Table 13 and the results in Table 14.
In Trial 5, the three compounds, methyl 2-methoxybenzoate, linalool and limonene were added to the binary 70:30 blend of phenylacetaldehyde:salicylaldehyde in two ratios, 1:1:1 and 1:1:0.5 at 3, 9, 30 and 90% w/w of the binary blend, to assess whether the additional compounds made the binary blend more attractive to nocturnal Lepidoptera. The compositions of the blends tested are shown in Table 15 and the results in Table 16.

[2] = tested on: H. armigera; assay: as above; type: in vivo, Helicoverpa armigera; conditions: Trial 1; Jessore; Country bean
[3] = tested on: Apis mellifera; assay: Floral bait trap catches of non-target insects (Example 2); type: in vivo; conditions: Trial 1; Narakoduru, Warangal District, AP, India; Cotton
Source text: as §1, §2, §3
(§5) In Tables 17 to 23 the total catches of selected Lepidoptera, Hymenoptera (Apis mellifera and Bombus spp.) and Diptera are shown.

[4] = tested on: Spodoptera litura; assay: as above; type: in vivo; conditions: Trial 1; Narakoduru, Warangal District, AP, India; Cotton
Source text: as §1, §2, §3, §5

[5] = tested on: Diptera; assay: as above; type: in vivo; conditions: Trial 1; Narakoduru, Warangal District, AP, India; Cotton
Source text: as §1, §2, §3, §5

[6] = tested on: Parnara guttatus; assay: as above; type: in vivo; conditions: Trial 1; Narakoduru, Warangal District, AP, India; Cotton
Source text: as §1, §2, §3, §5

[7] = tested on: Lampides boeticus; assay: as above; type: in vivo; conditions: Trial 1; Narakoduru, Warangal District, AP, India; Cotton
Source text: as §1, §2, §3, §5

[8] = tested on: Diaphania indica; assay: as above; type: in vivo; conditions: Trial 1; Narakoduru, Warangal District, AP, India; Cotton
Source text: as §1, §2, §3, §5

[9] = tested on: Other Lepidoptera; assay: as above; type: in vivo; conditions: Trial 1; Narakoduru, Warangal District, AP, India; Cotton
Source text: as §1, §2, §3, §5

[10] = tested on: Autographa gama; assay: as above; type: in vivo; conditions: Trial 1; Narakoduru, Warangal District, AP, India; Cotton
Source text: as §1, §2, §3, §5

[11] = tested on: Bombus spp.; assay: as above; type: in vivo; conditions: Trial 1; Narakoduru, Warangal District, AP, India; Cotton
Source text: as §1, §2, §3, §5

[12] = tested on: All Lepidoptera; assay: Field trials in India: floral bait trap catches, Trials 1-5 (Example 2); type: in vivo; conditions: Trial 1; for Total catches All Lepidoptera: Cotton; for Attractiveness to the non-target species recorded: species of Table 17
Source text: as §1, §2, §3, §4
In India, records were taken of all Lepidopterous species caught in the traps. The total Lepidoptera catches reflected the general trends in H. armigera catches. […] Thus blends containing between 3 and 30 percent salicylaldehyde relative to phenylacetaldehyde were on average the most attractive of the binary blends tested. […]

[13] = tested on: H. armigera; assay: Field trials in Bangladesh: trap catch with floral odour lures (Example 1); type: in vivo, Helicoverpa armigera; conditions: Table 1; increasing relative amount of minor components; adult H. armigera
Protocol: Lures were prepared from heat-sealed low density polyethylene sachets formed from ‘layflat plastic’ tubing. In early field work, the lures were prepared on site, with each lure comprising a single compound in a dose of 0.1 ml. The release rate of compounds from the polyethylene sachets is independent of the amount of material in the sachet and so a particular dosage affects longevity only. Longevity, in turn, is dependent on ambient temperature, with an increase of 7-10° C. leading to a doubling of the release rate. Water traps were placed at crop height and trap catches were taken as a crude measure of attractiveness to the compounds. As the compounds mimic ‘floral odours’ generally, they were not expected to be species-specific in their effect.
During testing, different combinations of floral odours, together with H. armigera pheromone, were used as attractants. The chemicals were put inside sealed plastic sachets (10×5 cm) and the sachets were hung inside traps prepared from clear plastic pots (19 cm height, 15 cm dia.) with two triangular holes (12 cm base, 9 cm height) at opposite sides. The traps were set at 1 m height with an inter-trap distance of 10 m. Insects that were trapped by the lures were collected, identified and recorded at weekly intervals.

[14] = tested on: female Helicoverpa armigera; conditions: Pawar et al., 1993; cited from earlier work

| Structure (SMILES) | Attractiveness to H. armigera [1] | Total catches H. armigera ([1]; Jammikunta KVK) | Total catches H. armigera ([1]; Jessore) | Total catches H. armigera ([1]; Narakoduru, Guntur) | Total catches H. armigera ([1]; Shreepur) | Total catches H. armigera [2] | Total catches Apis mellifera [3] | Total catches Spodopt. litura [4] | Total catches Diptera [5] | Total catches Parnara guttat. [6] | Total catches Lampides boeticus [7] | Total catches Diaphania indica [8] | Total catches Other Lepidop. [9] | Total catches Autogr. gama [10] | Total catches Bombus spp. [11] | Total catches All Lepidoptera ([12]; Jammikunta KVK) | Total catches All Lepidoptera ([12]; Narakoduru, Guntur) | Attractiveness to the non-target species recorded [12] | H. armigera Catch [13] | Attraction of female Helicoverpa armigera [14] |
| --- | --- | --- | --- | --- | --- | --- | --- | --- | --- | --- | --- | --- | --- | --- | --- | --- | --- | --- | --- | --- |
| O=Cc1ccccc1O [96/01, salicylaldehyde] | attractive | 0 | 16 | 0 | 1 | 3 | 10 | 1 | 1 | 0 | 0 | 1 | 6 | 0 | 0 | 3 | 8 | unattractive | – | – |
| O=CCc1ccccc1 [96/09, phenylacetaldehyde] | – | 1 | 30 | 1 | 20 | 0 | 18 | 1 | 8 | 14 | 1 | 13 | 67 | 12 | 1 | 15 | 94 | attractive | 9 | strong attractant |
